Experimental data: ChEMBL document CHEMBL2434921, “New synthetic aliphatic sulfonamido-quaternary ammonium salts as anticancer chemotherapeutic agents” (2013)
The source made the active and inactive calls. The rule behind the calls is not given here.

Experiments:
[1] = system: NUGC-3; assay: Growth of human NUGC3 cells at 1 uM after 48 hrs by SRB assay; conditions: NUGC-3, 48 h
[2] = system: NUGC-3; assay: Growth inhibition of human NUGC3 cells after 48 hrs by SRB assay; format: functional; conditions: NUGC-3, 48 h
[3] = system: PC-3; assay: Growth inhibition of human PC3 cells at 0.1 uM after 48 hrs by SRB assay; values are per cent of control; conditions: PC-3, 48 h
[4] = system: NCI-H23; assay: Growth of human NCI-H23 cells at 0.3 uM after 48 hrs by SRB assay; conditions: NCI-H23, 48 h
[5] = system: NCI-H23; assay: Growth of human NCI-H23 cells at 10 uM after 48 hrs by SRB assay; conditions: NCI-H23, 48 h
[6] = system: PC-3; assay: Growth of human PC3 cells at 10 uM after 48 hrs by SRB assay; conditions: PC-3, 48 h
[7] = system: ACHN; assay: Growth of human ACHN cells at 0.3 uM after 48 hrs by SRB assay
[8] = molecular target: Rho-related GTP-binding protein RhoB (Homo sapiens) (UniProt P62745); assay: Transactivation of RhoB (unknown origin) transfected in human HeLa cells at 5 uM measured over 10 secs by dual luciferase reporter gene assay; format: cell-based
Rho-related GTP-binding protein RhoB (Homo sapiens), sequence (P62745 whole entry): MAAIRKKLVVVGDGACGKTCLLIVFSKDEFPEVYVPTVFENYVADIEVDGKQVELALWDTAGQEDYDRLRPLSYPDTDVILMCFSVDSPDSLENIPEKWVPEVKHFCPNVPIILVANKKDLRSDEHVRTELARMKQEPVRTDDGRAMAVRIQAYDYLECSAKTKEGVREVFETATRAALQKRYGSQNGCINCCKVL

[9] = system: HCT-15; assay: Growth inhibition of human HCT15 cells after 48 hrs by SRB assay; format: functional; conditions: HCT-15, 48 h
[10] = system: ACHN; assay: Growth inhibition of human ACHN cells at 3 uM after 48 hrs by SRB assay; values are per cent of control
[11] = system: MDA-MB-231; assay: Growth inhibition of human MDA-MB-231 cells at 0.3 uM after 48 hrs by SRB assay; values are per cent of control; conditions: MDA-MB-231, 48 h
[12] = system: MDA-MB-231; assay: Growth of human MDA-MB-231 cells at 10 uM after 48 hrs by SRB assay; conditions: MDA-MB-231, 48 h
[13] = system: NUGC-3; assay: Growth of human NUGC3 cells at 0.1 uM after 48 hrs by SRB assay; conditions: NUGC-3, 48 h
[14] = system: PC-3; assay: Growth inhibition of human PC3 cells at 0.3 uM after 48 hrs by SRB assay; values are per cent of control; conditions: PC-3, 48 h
[15] = system: HCT-15; assay: Growth inhibition of human HCT15 cells at 10 uM after 48 hrs by SRB assay; values are per cent of control; conditions: HCT-15, 48 h
[16] = system: ACHN; assay: Growth inhibition of human ACHN cells at 1 uM after 48 hrs by SRB assay; values are per cent of control
[17] = system: HCT-15; assay: Growth inhibition of human HCT15 cells at 1 uM after 48 hrs by SRB assay; values are per cent of control; conditions: HCT-15, 48 h
[18] = system: ACHN; assay: Growth inhibition of human ACHN cells after 48 hrs by SRB assay; format: functional
[19] = system: MDA-MB-231; assay: Growth inhibition of human MDA-MB-231 cells after 48 hrs by SRB assay; format: functional; conditions: MDA-MB-231, 48 h
[20] = system: NUGC-3; assay: Growth inhibition of human NUGC3 cells at 3 uM after 48 hrs by SRB assay; values are per cent of control; conditions: NUGC-3, 48 h
[21] = system: PC-3; assay: Growth inhibition of human PC3 cells at 3 uM after 48 hrs by SRB assay; values are per cent of control; conditions: PC-3, 48 h
[22] = system: HCT-15; assay: Growth inhibition of human HCT15 cells at 0.1 uM after 48 hrs by SRB assay; values are per cent of control; conditions: HCT-15, 48 h
[23] = system: NCI-H23; assay: Growth inhibition of human NCI-H23 cells at 3 uM after 48 hrs by SRB assay; values are per cent of control; conditions: NCI-H23, 48 h
[24] = system: NUGC-3; assay: Growth of human NUGC3 cells at 0.3 uM after 48 hrs by SRB assay; conditions: NUGC-3, 48 h
[25] = system: PC-3; assay: Growth inhibition of human PC3 cells after 48 hrs by SRB assay; format: functional; conditions: PC-3, 48 h
[26] = system: MDA-MB-231; assay: Growth of human MDA-MB-231 cells at 1 uM after 48 hrs by SRB assay; conditions: MDA-MB-231, 48 h
[27] = system: MDA-MB-231; assay: Growth of human MDA-MB-231 cells at 0.1 uM after 48 hrs by SRB assay; conditions: MDA-MB-231, 48 h
[28] = system: NUGC-3; assay: Growth inhibition of human NUGC3 cells at 10 uM after 48 hrs by SRB assay; values are per cent of control; conditions: NUGC-3, 48 h
[29] = system: NCI-H23; assay: Growth inhibition of human NCI-H23 cells after 48 hrs by SRB assay; format: functional; conditions: NCI-H23, 48 h
[30] = system: PC-3; assay: Growth inhibition of human PC3 cells at 1 uM after 48 hrs by SRB assay; values are per cent of control; conditions: PC-3, 48 h
[31] = system: NCI-H23; assay: Growth inhibition of human NCI-H23 cells at 0.1 uM after 48 hrs by SRB assay; values are per cent of control; conditions: NCI-H23, 48 h
[32] = system: HCT-15; assay: Growth of human HCT15 cells at 3 uM after 48 hrs by SRB assay; conditions: HCT-15, 48 h
[33] = system: HCT-15; assay: Growth of human HCT15 cells at 0.3 uM after 48 hrs by SRB assay; conditions: HCT-15, 48 h
[34] = system: NCI-H23; assay: Growth inhibition of human NCI-H23 cells at 1 uM after 48 hrs by SRB assay; values are per cent of control; conditions: NCI-H23, 48 h
[35] = system: MDA-MB-231; assay: Growth of human MDA-MB-231 cells at 3 uM after 48 hrs by SRB assay; values are per cent of control; conditions: MDA-MB-231, 48 h
[36] = system: ACHN; assay: Growth of human ACHN cells at 10 uM after 48 hrs by SRB assay
[37] = system: ACHN; assay: Growth of human ACHN cells at 0.1 uM after 48 hrs by SRB assay

Activity [8] | GI50 [9] | GI50 [18] | GI50 [19] | SMILES | growth, % of control at 1 µM [1] | GI50 [2] | growth, % of control at 0.1 µM [3] | growth, % of control at 0.3 µM [4] | growth, % of control at 10 µM [5] | growth, % of control at 10 µM [6] | growth, % of control at 0.3 µM [7] | growth, % of control at 3 µM [10] | growth, % of control at 0.3 µM [11] | growth, % of control at 10 µM [12] | growth, % of control at 0.1 µM [13] | growth, % of control at 0.3 µM [14] | growth, % of control at 10 µM [15] | growth, % of control at 1 µM [16] | growth, % of control at 1 µM [17] | growth, % of control at 3 µM [20] | further results
Active | 780 nM | 1000 nM | 1040 nM | CCCCCCCCCCCCCCCCS(=O)(=O)N(C)CCC[N+](C)(C)C | 25% | 210 nM | 101% | 97.3% | -10.4% | -54.1% | 97.6% | 36.3% | 92.3% | 8.8% | 91.8% | 91% | 8.7% | 72.2% | 57% | -22.4% | growth, % of control at 3 µM [21]: -24.5%; growth, % of control at 0.1 µM [22]: 100%; growth, % of control at 3 µM [23]: 26.5%; growth, % of control at 0.3 µM [24]: 59.1%; GI50 [25]: 440 nM; growth, % of control at 1 µM [26]: 66.5%; growth, % of control at 0.1 µM [27]: 97.6%; growth, % of control at 10 µM [28]: -40.9%; GI50 [29]: 910 nM; growth, % of control at 1 µM [30]: 31.5%; growth, % of control at 0.1 µM [31]: 94.9%; growth, % of control at 3 µM [32]: 26.7%; growth, % of control at 0.3 µM [33]: 104%; growth, % of control at 1 µM [34]: 72.7%; growth, % of control at 3 µM [35]: 39.2%; growth, % of control at 10 µM [36]: -31.4%; growth, % of control at 0.1 µM [37]: 96.7%
Active | 4730 nM | 3480 nM | 1350 nM | C=CC[N+](C)(C)CCN(C)S(=O)(=O)CCCCCCCCCCCCCCCC | 65.5% | 760 nM | 99.9% | 96.2% | 2.5% | -4.8% | 130% | 69.3% | 104% | 18.4% | 108% | 95.9% | 48.7% | 112% | 97.2% | 20.9% | growth, % of control at 3 µM [21]: 10.1%; growth, % of control at 0.1 µM [22]: 100%; growth, % of control at 3 µM [23]: 30.9%; growth, % of control at 0.3 µM [24]: 105%; GI50 [25]: 620 nM; growth, % of control at 1 µM [26]: 86.5%; growth, % of control at 0.1 µM [27]: 108%; growth, % of control at 10 µM [28]: 9.4%; GI50 [29]: 890 nM; growth, % of control at 1 µM [30]: 61.8%; growth, % of control at 0.1 µM [31]: 101%; growth, % of control at 3 µM [32]: 76.5%; growth, % of control at 0.3 µM [33]: 101%; growth, % of control at 1 µM [34]: 69.8%; growth, % of control at 3 µM [35]: 39.4%; growth, % of control at 10 µM [36]: 38.6%; growth, % of control at 0.1 µM [37]: 135%
